Measured values reported in patent US4515767A, “Radioactive metals complexed with phosphonate derivatives of dicyclopentadienebis(methylamine)” (The Dow Chemical Company, priority 1983, dated 1985).

Key:
[1] = Uptake in end bone and midbone of femur in anesthetized rats, NaI scintillation counting (Table II); assay type: in vivo; conditions: vein, 120 minutes; for % Dose/gram End Bone: femur ends; for % Dose/gram Midbone: femur mid-section; for End-/Mid-bone: femur, ratio of end bone to midbone
Protocol: Fifty μl of the complex prepared in Example 1 was injected into the vein of anesthetized laboratory rats. After 120 minutes the animals were killed and the femurs removed. The ends of the bones were cut away from the mid-section and each section was weighed and analyzed separately. The amount of activity in the bone sections was quantitated using NaI scintillation counting. The results were compared to those of complexes prepared from commercial diphosphonate kits (Table II).

[2] = after intravenous administration; cited from earlier work

Molecule	% Dose/gram End Bone [1] [% Dose/gram]	% Dose/gram Midbone [1] [% Dose/gram]	End-/Mid-bone [1]	accumulation by bone (in words) [2]
O=P(O)(O)OP(=O)(O)O [PYP, pyrophosphate]	3.50	1.78	1.97	
[85Sr] [Sr-85, Strontium-85]				rapidly accumulated by bone
CC(O)(P(=O)(O)O)P(=O)(O)O [EHDP, hydroxyethanediphosphosphonate]	3.40	1.46	2.33	
methylenediphosphonate [MDP]	3.95	1.90	2.08	
